# Assay results reported in US20100178293A1 (priority 2007, published 2010).
# Tests used:
# [1] = tested on: mouse model for Alzheimer's disease; conditions: literature, Lim et al. 2000; cited from earlier work
# Tg2576 Tg+ mice = test: Tg2576 mouse model of Alzheimer's disease (Example 2); format: in vivo; conditions: 100 μg i.v. weekly for 6 months
# Description: Ten-month-old male and female Tg2576 Tg+ and Tg− are used (n=10 animals/group). Tg+ mice are treated with Campath 100 μg i.v. weekly for 6 months or placebo (saline), respectively before being sacrificed. TG− mice served as controls Animals are perfused before brain dissection with 0.9% normal saline followed by HEPES buffer, pH 7.2, containing protease inhibitors. […] Tg+ mice fed chow containing ibuprofen for 6 months serve as positive treatment control.
# RML prion = format: in vivo, mice; conditions: Example 1; RML prion i.p.; Campath 100 μg i.v.
Molecule,plaque pathology and inflammation in a mouse model for Alzheimer's disease [1],activity in a mouse model of Alzheimer's disease (Tg2576 Tg+ mice),inhibition of the spread of prions in an animal model (RML prion)
CC(C)Cc1ccc(C(C)C(=O)O)cc1 (stereo not drawn) [Ibuprofen],suppresses plaque pathology and inflammation,–,–
alemtuzumab [Campath],–,active,can inhibit the spread of prions
